Consider two substances from patent US12138625B2, “Screening kit and method” (CELLPLY S.R.L., priority 2016, dated 2024).

Experiment [1] has as its system SU-DHL-4 cancer cells. The experiment is described as follows: open well assay of Rituximab on SU-DHL-4 lymphoma cells (Calcein-AM / PI, time-lapse). It is filed as cell-based. The note with it: Rituximab 10 μg/mL, human serum 1%, PI 5 μM; versus CTRL; FIG. 11A. How it is done:
Cells: SU-DHL-4 lymphoma cells and Raji cells were used (ATCC CCL-86). 3·10^5 cells/mL were cultured in RPMI medium supplemented with 10% FBS, 1% […]/streptomycin at 37° C., 95% RH, 5% CO2. The cells were amplified, dividing them when in confluence. PBMC were isolated from blood by centrifugation in gradient. Whole blood from healthy donors was collected into tubes treated with anticoagulants according to the directive “ethical principles and guidelines for the protection of humans in research”. Isolated PBMC were washed twice with 10 mL cold HBSS after lysis of red blood cells. The concentration of cells and their viability was determined with Trypan Blue on haemocytometer. The concentration was adjusted to 1 million cells/mL.
Different batches of SU-DHL-4 or Raji cells were harvested at the peak of their growth, washed with PBS and counted in a hemocytometer with Trypan Blue. The cell concentration was adjusted to 1 million cells/mL and they were labeled with Calcein AM (CAM) 5 nM for flow cytometry and 250 nM for the assay according to the present invention. […] Cell viability was finally assessed by PI and flow cytometry. […]
The images were acquired in brightfield (BF) to evaluate the morphological characteristics and then in fluorescence to evaluate the signal in DAPI bands (ex: 360/40 nm, em: 460/50 nm), FITC (ex: 480/30 nm, em: 535/40 nm), TRITC (ex: 540/25 nm, em: 605/55 nm). […]

For experiment [2], the system named is Jurkat cells. The experiment is described as follows: calcium signal (Fluo-4) of Jurkat cells after stimulation in open microwells. It is filed as cell-based, human. The note with it: Fluo-4 fluorescence, OKT3 10 μg/mL, average of a series of 3 experiments. The procedure: Cells from the Jurkat cell line (human Leukemic T cells) were obtained from ATCC and cultured in RPMI 1640 medium supplemented with 10% inactivated FBS medium, 10 mM Hepes, 2 mM Ultraglutamine and 1 mM sodium pyruvate, 1% Penicillin/Streptomycin in 25 cm^2 flasks at 37° C. and 5% CO2.
The OKT3 hybridomas were cultured in bioreactors (CellLine, Integra Biosciences) in complete RPMI 1640 medium containing 3% FBS and the supernatant was collected 2 times a week. The purification of monoclonal antibodies was performed using a double saturated ammonium sulfate precipitation at 30% and 50%, followed by dialysis in PBS. The purity of OKT3 was assessed by SDS-PAGE gel and the amount of antibody was determined through NanoDrop (Thermo Scientific). The antibody was then frozen at −80° C. before use.
For the assay in open microwells according to the present invention, Jurkat cells were labeled with Fluo-4 20 μM in HBSS, centrifuged and resuspended in serum-free medium (RPMI 1640 with 25 mM Hepes or HBSS) at a concentration of 1.6×10^6 cells/mL in 1.5 mL Eppendorf tubes used as input reservoirs for the open reversed microwell system. […] The images were acquired by a camera connected to the microscope at a distance of 1 minute and processed by software developed in LabView, quantifying the dynamic performance of the same signal on each sample cell.

As to RTX: monoclonal antibody Rituximab, in experiment [1], the “dead cells (PI, TRITC channel) in time-lapse images” value is “present only at T2 and T3 in the RTX group”. In the case of “OKT3: monoclonal antibody purified from OKT3 hybridoma supernatant”, the “increase of the signal peak, compared to the baseline value” in experiment [2] came out at 178%+/−90%.
